Test results reported in the supplement of paper PMC11986102.

Tests used:
Test in all cases: OD600 after 10 h growth (baseline-subtracted); higher = more bacterial growth (less inhibition)
[1] = test system: Klebsiella pneumoniae MKP103
Description: (§1)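 Broth microdilution growth assay in Mueller Hinton broth, 100 µL in 96-well plates, inoculated 1:200 from OD600 0.1 overnight cultures by pinning, 37 °C with shaking at 800 rpm, 1:2 serial dilutions from 128 µg/mL (64 µg/mL for Ebastine). The read-out is OD600 after 10 h; curves were baseline-corrected by subtracting the minimum of the 2nd-4th measurements. Three biological replicates, with water and DMSO no-compound controls.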

[2] = test system: Pseudomonas aeruginosa PA14
Description: as §1

[3] = test system: Escherichia coli IAI1
Description: as §1

[4] = test system: Escherichia coli CFT073 (UPEC)
Description: as §1

[5] = test system: Staphylococcus aureus Newman
Description: as §1

Cc1c(Cl)c(C)[n+]([O-])c(Cl)c1-c1noc(-c2cc(O)c(O)c([N+](=O)[O-])c2)n1 [Opicapone]
OD600 after 10 h growth
Conditions | [1] | [2] | [3] | [4] | [5]
0.1 µg/mL | 0.664 | 0.743 | 0.811 | 0.786 | 1.07
0.2 µg/mL | 0.668 | 0.743 | 0.855 | 0.788 | 1.07
0.5 µg/mL | 0.669 | 0.764 | 0.822 | 0.94 | 1.07
1 µg/mL | 0.681 | 0.829 | 0.815 | 0.787 | 1.07
2 µg/mL | 0.744 | 0.747 | 0.818 | 0.786 | 1.09
4 µg/mL | 0.791 | 0.81 | 0.802 | 0.872 | 1.18
8 µg/mL | 0.839 | 0.709 | 0.797 | 1.02 | 1.07
16 µg/mL | 0.781 | 0.677 | 0.798 | 0.787 | 0.413
32 µg/mL | 0.682 | 0.678 | 0.801 | 0.775 | 0.371
64 µg/mL | 0.669 | 0.658 | 0.792 | 0.796 | 0.466
128 µg/mL | 0.632 | 0.603 | 0.767 | 0.758 | 0.356

CC(=O)N[C@H](Cc1ccc2ccccc2c1)C(=O)N[C@H](Cc1ccc(Cl)cc1)C(=O)N[C@H](Cc1cccnc1)C(=O)N[C@@H](CO)C(=O)N[C@@H](Cc1ccc(O)cc1)C(=O)N[C@H](CCCNC(N)=O)C(=O)N[C@@H](CC(C)C)C(=O)N[C@@H](CCCNC(=N)N)C(=O)N1CCC[C@H]1C(=O)N[C@H](C)C(N)=O [Cetrorelix]
OD600 after 10 h growth
Conditions | [1] | [2] | [3] | [4] | [5]
0.1 µg/mL | 0.674 | 0.741 | 0.865 | 0.804 | 1.08
0.2 µg/mL | 0.679 | 0.742 | 0.872 | 0.832 | 1.08
0.5 µg/mL | 0.687 | 0.742 | 0.829 | 0.8273 | 1.08
1 µg/mL | 0.693 | 0.727 | 0.828 | 0.812 | 1.1
2 µg/mL | 0.702 | 0.726 | 0.831 | 0.827 | 1.1
4 µg/mL | 0.701 | 0.736 | 0.821 | 0.83 | 1.11
8 µg/mL | 0.707 | 0.736 | 0.831 | 0.806 | 1.11
16 µg/mL | 0.712 | 0.754 | 0.837 | 0.81 | 1.117
32 µg/mL | 0.717 | 0.763 | 0.814 | 0.792 | 1.117
64 µg/mL | 0.69 | 0.749 | 0.8 | 0.807 | 1.09
128 µg/mL | 0.679 | 0.756 | 0.786 | 0.77 | 1.05

CC1=C(C)C(=O)C(CCCCCCCCCC[P+](c2ccccc2)(c2ccccc2)c2ccccc2)=CC1=O [Visomitin]
OD600 after 10 h growth
Conditions | [1] | [2] | [3] | [4] | [5]
0.1 µg/mL | 0.672 | 0.762 | 0.805 | 0.786 | 1.08
0.2 µg/mL | 0.672 | 0.757 | 0.808 | 0.787 | 1.08
0.5 µg/mL | 0.676 | 0.757 | 0.8 | 0.785 | 1.09
1 µg/mL | 0.674 | 0.754 | 0.848 | 0.785 | 1.08
2 µg/mL | 0.679 | 0.856 | 0.815 | 0.818 | 0.0277
4 µg/mL | 0.686 | 0.821 | 0.795 | 0.809 | 0.0387
8 µg/mL | 0.697 | 0.733 | 0.769 | 0.777 | 0.0433
16 µg/mL | 0.7 | 0.717 | 0.045 | 0.0113 | 0.0257
32 µg/mL | 0.196 | 0.681 | 0.0307 | 0.007 | 0.0217
64 µg/mL | 0.00967 | 0.0773 | 0.032 | 0.0133 | 0.0133
128 µg/mL | 0.0183 | 0.0423 | 0.0327 | 0.024 | 0.025

Cc1cn([C@H]2C[C@H](O)[C@@H](CO)O2)c(=O)[nH]c1=O [Thymidine]
OD600 after 10 h growth
Conditions | [1] | [2] | [3] | [4] | [5]
0.1 µg/mL | 0.666 | 0.756 | 0.814 | 0.783 | 1.08
0.2 µg/mL | 0.669 | 0.899 | 0.952 | 0.956 | 1.07
0.5 µg/mL | 0.67 | 0.749 | 0.803 | 0.788 | 1.07
1 µg/mL | 0.666 | 0.748 | 0.802 | 0.794 | 1.22
2 µg/mL | 0.674 | 0.758 | 0.81 | 0.891 | 1.16
4 µg/mL | 0.69 | 0.853 | 0.808 | 0.89 | 1.39
8 µg/mL | 0.838 | 0.748 | 0.805 | 0.932 | 1.28
16 µg/mL | 0.773 | 0.745 | 0.804 | 0.873 | 1.23
32 µg/mL | 0.684 | 0.738 | 0.792 | 0.804 | 1.1
64 µg/mL | 0.672 | 0.718 | 0.782 | 0.786 | 1.09
128 µg/mL | 0.645 | 0.645 | 0.772 | 0.772 | 1.1

COc1cc2c(cc1Cc1cccc(Cl)c1F)c(=O)c(C(=O)O)cn2[C@H](CO)C(C)C [Elvitegravir]
OD600 after 10 h growth
Conditions | [1] | [2] | [3] | [4] | [5]
0.1 µg/mL | 0.671 | 0.752 | 0.803 | 0.782 | 1.07
0.2 µg/mL | 0.666 | 0.747 | 0.846 | 0.768 | 1.07
0.5 µg/mL | 0.672 | 0.751 | 0.816 | 0.793 | 1.08
1 µg/mL | 0.664 | 0.748 | 0.808 | 0.81 | 1.08
2 µg/mL | 0.671 | 0.761 | 0.82 | 0.812 | 1.08
4 µg/mL | 0.675 | 0.756 | 0.818 | 0.804 | 0.309
8 µg/mL | 0.681 | 0.758 | 0.834 | 0.793 | 0.0327
16 µg/mL | 0.675 | 0.743 | 0.836 | 0.807 | 0.0197
32 µg/mL | 0.651 | 0.689 | 0.812 | 0.806 | 0.00533
64 µg/mL | 0.625 | 0.661 | 0.784 | 0.766 | 0
128 µg/mL | 0.596 | 0.588 | 0.771 | 0.733 | 0.013

CC(C)(C)c1ccc(C(=O)CCCN2CCC(OC(c3ccccc3)c3ccccc3)CC2)cc1 [Ebastine]
OD600 after 10 h growth
Conditions | [1] | [2] | [3] | [4] | [5]
0.05 µg/mL | 0.665 | 0.75 | 0.808 | 0.78 | 1.11
0.1 µg/mL | 0.667 | 0.752 | 0.807 | 0.781 | 1.08
0.2 µg/mL | 0.666 | 0.742 | 0.796 | 0.783 | 1.14
0.5 µg/mL | 0.666 | 0.744 | 0.793 | 0.789 | 1.06
1 µg/mL | 0.671 | 0.754 | 0.812 | 0.798 | 1.15
2 µg/mL | 0.681 | 0.842 | 0.816 | 0.792 | 1.1
4 µg/mL | 0.787 | 0.749 | 0.808 | 0.797 | 1.05
8 µg/mL | 0.678 | 0.743 | 0.81 | 0.803 | 1.03
16 µg/mL | 0.661 | 0.725 | 0.848 | 0.792 | 0.987
32 µg/mL | 0.647 | 0.697 | 0.778 | 0.775 | 0.991
64 µg/mL | 0.613 | 0.603 | 0.754 | 0.755 | 1.02
